Test results published in PMC12352625, “Double crossed? Structural and computational studies of an unusually crosslinked haem in Methylococcus capsulatus cytochrome P460” (Chemical Science, 2025).

Molecular target: T1, McP460 (cytochrome P460 from Methylococcus capsulatus (Bath)) (Methylococcus capsulatus, UniProt G1UBD9)
T1 construct: gene MCA0524; recombinant from E. coli; covalent c-type P460 haem (Cys140, Cys143, His144, Lys78)
T1 sequence (G1UBD9 18-161): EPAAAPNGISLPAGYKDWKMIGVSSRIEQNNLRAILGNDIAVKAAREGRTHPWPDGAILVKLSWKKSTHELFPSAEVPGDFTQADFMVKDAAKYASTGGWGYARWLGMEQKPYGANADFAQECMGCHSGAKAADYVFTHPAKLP
Test: DCPIP reduction assay; N2O by GC-MS; nitrite by Griess assay
Assay type: biochemical
Conditions: 5 uM enzyme, 6 uM PMS, 2 mM [Ru(NH3)6]Cl3, 0-1000 uM hydroxylamine for product assays; anaerobic or aerobic

In the case of `NO` [hydroxylamine], the “DCPIP reduction assay; N2O by GC-MS; nitrite by Griess assay” value is reported as “assays were carried out to assess the protein's ability to oxidise hydroxylamine, and product formation”.
